Data taken from ChEMBL document CHEMBL4257450, “The synthesis, biological evaluation and structure-activity relationship of 2-phenylaminomethylene-cyclohexane-1,3-diones as specific anti-tuberculosis agents” (Medchemcomm, 2017).
Converted amounts (≈) assume the structure as drawn.

Tests used:
[1] = tested on: Mycobacterium tuberculosis; experiment: Antimycobacterial activity against Mycobacterium tuberculosis H37Rv after 14 days by broth dilution method; format: functional; conditions: 336 h
[2] = Growth inhibition of HEK293 cells at 50 uM by MTT assay relative to control; format: cell-based; conditions: human, read-out: GI
[3] = Growth inhibition of human MCF7 cells at 50 uM by MTT assay relative to control; format: cell-based; conditions: read-out: GI
[4] = Growth inhibition of human HCT116 cells at 50 uM by MTT assay relative to control; format: cell-based, HCT-116; conditions: read-out: GI
[5] = Growth inhibition of human PC3 cells at 50 uM by MTT assay relative to control; format: cell-based, PC-3; conditions: read-out: GI
[6] = Growth inhibition of HEK293 cells at 1 to 40 uM by MTT assay relative to control; format: cell-based; conditions: human, read-out: GI
[7] = Growth inhibition of human MCF7 cells at 1 to 40 uM by MTT assay relative to control; format: cell-based; conditions: read-out: GI
[8] = Growth inhibition of human PC3 cells at 1 to 40 uM by MTT assay relative to control; format: cell-based, PC-3; conditions: read-out: GI
[9] = Growth inhibition of human HCT116 cells at 1 to 40 uM by MTT assay relative to control; format: cell-based, HCT-116; conditions: read-out: GI
[10] = Selectivity ratio of MIC for Mycobacterium smegmatis to MIC for Mycobacterium tuberculosis; format: functional
[11] = tested on: Mycolicibacterium smegmatis; experiment: Antimycobacterial activity against Mycobacterium smegmatis; format: functional
[12] = tested on: Mycobacterium tuberculosis; experiment: Antimycobacterial activity against Mycobacterium tuberculosis; format: functional
Staphylococcus aureus = experiment: Antibacterial activity against Staphylococcus aureus ATCC 25923 after 24 hrs; format: functional; conditions: ATCC 25923, 24 h
[13] = tested on: Staphylococcus epidermidis; experiment: Antibacterial activity against Staphylococcus epidermidis ATCC 12228 after 24 hrs; format: functional; conditions: ATCC 12228, 24 h
Bacillus subtilis = experiment: Antibacterial activity against Bacillus subtilis ATCC 11774 after 24 hrs; format: functional; conditions: ATCC 11774, 24 h
Micrococcus luteus = experiment: Antibacterial activity against Micrococcus luteus ATCC 10240 after 24 hrs; format: functional; conditions: ATCC 10240, 24 h
Enterococcus faecalis = experiment: Antibacterial activity against Enterococcus faecalis ATCC 51299 after 24 hrs; format: functional; conditions: ATCC 51299, 24 h
Escherichia coli = experiment: Antibacterial activity against Escherichia coli 10536 after 24 hrs; format: functional; conditions: Escherichia coli, 10536, 24 h
Klebsiella pneumoniae = experiment: Antibacterial activity against Klebsiella pneumoniae ATCC BAA-2146 after 24 hrs; format: functional; conditions: ATCC BAA-2146, 24 h
Pseudomonas aeruginosa = experiment: Antibacterial activity against Pseudomonas aeruginosa ATCC 10145 after 24 hrs; format: functional; conditions: ATCC 10145, 24 h
[14] = tested on: Mycolicibacterium smegmatis; experiment: Antimycobacterial activity against Mycobacterium smegmatis ATCC 607 after 24 hrs; format: functional; conditions: ATCC 607, 24 h
HEK293 = experiment: Growth inhibition of HEK293 cells up to 80 uM by MTT assay relative to control; format: cell-based; conditions: human

CC1(C)CC(=O)C(=CNc2ccccc2C(F)(F)F)C(=O)C1
MIC [1]: > 80 µg/mL

O=C1CCCC(=O)C1=CNc1ccccc1O
MIC [1]: 5 to 10 µg/mL (≈ 21.6 to 43.2 µM) | inhibition at 50 µM [2]: 28.3% | inhibition at 50 µM [3]: 14.5% | inhibition at 50 µM [4]: 10.6% | inhibition at 50 µM [5]: 29.5% | inhibition at up to 40 µM [6]: < 20% | inhibition at up to 40 µM [7]: < 20% | inhibition at up to 40 µM [8]: < 20% | inhibition at up to 40 µM [9]: < 20%

CCCN(C=C1C(=O)CC(C)(C)CC1=O)CCC
MIC [1]: > 80 µg/mL

Cc1ccc(NC=C2C(=O)CC(C)(C)CC2=O)c(C)c1
MIC [1]: > 80 µg/mL

CC1(C)CC(=O)C(=CNc2ccc(Br)cc2)C(=O)C1
MIC [1]: > 80 µg/mL

CC1(C)CC(=O)C(=CSc2ccccc2O)C(=O)C1
MIC [1]: 40 to 80 µg/mL (≈ 145 to 289 µM)

CCCNC=C1C(=O)CC(C)(C)CC1=O
MIC [1]: > 80 µg/mL

CC1(C)CC(=O)C(=CNc2cc(Cl)c(Cl)cc2Cl)C(=O)C1
MIC [1]: > 80 µg/mL

CC1(C)CC(=O)C(=CNCc2ccc(F)cc2)C(=O)C1
MIC [1]: > 80 µg/mL

Cc1ccc(NC=C2C(=O)CC(C)(C)CC2=O)c(C)c1C
MIC [1]: > 80 µg/mL

CC1CC(=O)C(=CNc2ccccc2O)C(=O)C1 (stereo not drawn)
MIC [1]: 20 µg/mL (≈ 81.5 µM) | inhibition at 50 µM [2]: 6.08% | inhibition at 50 µM [3]: 16.6% | inhibition at 50 µM [4]: 35.7% | inhibition at 50 µM [5]: 8.2% | inhibition at up to 40 µM [6]: < 20% | inhibition at up to 40 µM [7]: < 20% | inhibition at up to 40 µM [8]: < 20% | inhibition at up to 40 µM [9]: < 20%

CO[C@H]1/C=C/O[C@@]2(C)Oc3c(C)c(O)c4c(O)c(c(/C=N/N5CCN(C)CC5)c(O)c4c3C2=O)NC(=O)/C(C)=C\C=C\[C@H](C)[C@H](O)[C@@H](C)[C@@H](O)[C@@H](C)[C@H](OC(C)=O)[C@@H]1C [RIFAMPIN]
MIC [1]: 0.078 µg/mL (≈ 0.0948 µM) | Selectivity ratio [10]: 500 to 1000 | MIC [11]: 100 µg/mL (≈ 122 µM) | MIC [12]: 0.2 µg/mL (≈ 0.243 µM)

CC1(C)CC(=O)C(=CNc2cccc3ccccc23)C(=O)C1
MIC [1]: > 80 µg/mL

CC[C@@H](CO)NCCN[C@@H](CC)CO [ETHAMBUTOL]
MIC [1]: 1.25 µg/mL (≈ 6.12 µM)

O=C1CC(c2ccc(Cl)cc2)CC(=O)C1=CNc1ccccc1O (stereo not drawn)
MIC [1]: 20 µg/mL (≈ 58.5 µM) | inhibition at 50 µM [2]: 44% | inhibition at 50 µM [3]: 23.4% | inhibition at 50 µM [4]: 28.6% | inhibition at 50 µM [5]: 18.6% | inhibition at up to 40 µM [6]: < 20% | inhibition at up to 40 µM [7]: < 20% | inhibition at up to 40 µM [8]: < 20% | inhibition at up to 40 µM [9]: < 20%

O=C1CCC(=O)C1=CNc1ccccc1O
MIC [1]: > 80 µg/mL

CC1(C)CCC(=O)C(=CNc2ccccc2O)C1=O (mixture of isomers)
MIC [1]: 10 to 20 µg/mL | inhibition at 50 µM [2]: 64.1% | inhibition at 50 µM [4]: 60.7% | inhibition at 50 µM [5]: 41.2% | inhibition at up to 40 µM [6]: < 20% | inhibition at up to 40 µM [7]: < 20% | inhibition at up to 40 µM [8]: < 20% | inhibition at up to 40 µM [9]: < 20%

NNC(=O)c1ccncc1 [ISONIAZID]
MIC [1]: 0.313 µg/mL (≈ 2.28 µM) | Selectivity ratio [10]: 500 to 1000 | MIC [11]: 25 µg/mL (≈ 182 µM) | MIC [12]: 0.02 µg/mL (≈ 0.146 µM)

CC1(C)CC(=O)C(=CNc2ccc(Cl)cc2)C(=O)C1
MIC [1]: > 80 µg/mL

O=C1CC(c2ccccc2)CC(=O)C1=CNc1ccccc1O (stereo not drawn)
MIC [1]: 5 to 10 µg/mL (≈ 16.3 to 32.5 µM) | inhibition at 50 µM [2]: 52.8% | inhibition at 50 µM [3]: 16.5% | inhibition at 50 µM [5]: 20.4% | inhibition at up to 40 µM [6]: < 20% | inhibition at up to 40 µM [7]: < 20% | inhibition at up to 40 µM [8]: < 20% | inhibition at up to 40 µM [9]: < 20%

C[C@H]1COc2c(N3CCN(C)CC3)c(F)cc3c(=O)c(C(=O)O)cn1c23.C[C@H]1COc2c(N3CCN(C)CC3)c(F)cc3c(=O)c(C(=O)O)cn1c23.O [LEVOFLOXACIN]
MIC [1]: 2.5 µg/mL | MIC (Staphylococcus aureus): 0.078 to 0.156 µg/mL | MIC [13]: 0.039 to 0.078 µg/mL | MIC (Bacillus subtilis): 0.39 µg/mL | MIC (Micrococcus luteus): 0.078 µg/mL | MIC (Enterococcus faecalis): 0.156 µg/mL | MIC (Escherichia coli): 0.078 µg/mL | MIC (Klebsiella pneumoniae): 0.625 to 1.25 µg/mL | MIC (Pseudomonas aeruginosa): 0.312 to 0.625 µg/mL | MIC [14]: 0.156 µg/mL

O=C1CCC(=O)C1=CNc1ccc([N+](=O)[O-])cc1Cl
MIC [1]: > 80 µg/mL

CNC=C1C(=O)CC(C)(C)CC1=O
MIC [1]: > 80 µg/mL

CC1(C)CC(=O)C(=CNc2ccccc2[N+](=O)[O-])C(=O)C1
MIC [1]: > 80 µg/mL

CN[C@@H]1[C@H](O[C@H]2[C@H](O[C@H]3[C@H](O)[C@@H](O)[C@H](N=C(N)N)[C@@H](O)[C@@H]3N=C(N)N)O[C@@H](C)[C@]2(O)C=O)O[C@@H](CO)[C@H](O)[C@H]1O [STREPTOMYCIN]
MIC [1]: 1.56 µg/mL (≈ 2.68 µM)

O=C1CC(c2ccco2)CC(=O)C1=CNc1ccccc1O (stereo not drawn)
MIC [1]: 10 to 20 µg/mL (≈ 33.6 to 67.3 µM) | inhibition at 50 µM [2]: 46.4% | inhibition at 50 µM [3]: 2.92% | inhibition at 50 µM [4]: 42.8% | inhibition at 50 µM [5]: 26.1% | inhibition at up to 40 µM [6]: < 20% | inhibition at up to 40 µM [7]: < 20% | inhibition at up to 40 µM [8]: < 20% | inhibition at up to 40 µM [9]: < 20%

CC1(C)CC(=O)C(=CNc2ccc([N+](=O)[O-])cc2F)C(=O)C1
MIC [1]: 80 µg/mL (≈ 261 µM)

CC1(C)CC(=O)C(=CNc2ccc([N+](=O)[O-])cc2[N+](=O)[O-])C(=O)C1
MIC [1]: > 80 µg/mL

CC1(C)CC(=O)C(=CNc2ccccc2)C(=O)C1
MIC [1]: > 80 µg/mL

CC1(C)CC(=O)C(=CNc2ccc(F)cc2F)C(=O)C1
MIC [1]: > 80 µg/mL

CC1(C)CC(=O)C(=CNc2ccccc2O)C(=O)C1
MIC [1]: 2.5 µg/mL (≈ 9.64 µM) | MIC (Staphylococcus aureus): > 128 µg/mL | MIC [13]: > 128 µg/mL | MIC (Bacillus subtilis): > 128 µg/mL | MIC (Micrococcus luteus): 128 µg/mL (≈ 494 µM) | MIC (Enterococcus faecalis): > 128 µg/mL | MIC (Escherichia coli): 32 to 64 µg/mL (≈ 123 to 247 µM) | MIC (Klebsiella pneumoniae): > 128 µg/mL | MIC (Pseudomonas aeruginosa): > 128 µg/mL | MIC [14]: > 80 µg/mL | inhibition at 50 µM [2]: 9.03% | inhibition at 50 µM [3]: 15.1% | inhibition at 50 µM [4]: 20.2% | inhibition at 50 µM [5]: 10.1% | inhibition at up to 40 µM [6]: < 20% | inhibition at up to 40 µM [7]: < 20% | inhibition at up to 40 µM [8]: < 20% | inhibition at up to 40 µM [9]: < 20% | growth inhibition (GI) (HEK293): < 20%

O=C1CCCC(=O)C1=CNc1ccc([N+](=O)[O-])cc1Cl
MIC [1]: 40 to 80 µg/mL (≈ 136 to 271 µM)

O=C1CCCC(=O)C1=CSc1ccccc1O
MIC [1]: 40 to 80 µg/mL (≈ 161 to 322 µM)

CC1(C)CC(=O)C(=CNc2cccc(Br)c2)C(=O)C1
MIC [1]: > 80 µg/mL

CC1(C)CC(=O)C(=CNc2ccc([N+](=O)[O-])cc2)C(=O)C1
MIC [1]: > 80 µg/mL

Cc1ccc(NC=C2C(=O)CC(C)(C)CC2=O)cc1C
MIC [1]: > 80 µg/mL

O=C1CCC(=O)C1=CNc1ccc([N+](=O)[O-])cc1F
MIC [1]: > 80 µg/mL

CC1(C)CC(=O)C(=CNc2ccccc2Br)C(=O)C1
MIC [1]: > 80 µg/mL

CC1(C)CC(=O)C(=CNc2cccc(C(F)(F)F)c2)C(=O)C1
MIC [1]: > 80 µg/mL

CCCCCNC=C1C(=O)CC(C)(C)CC1=O
MIC [1]: > 80 µg/mL

CCCCNC=C1C(=O)CC(C)(C)CC1=O
MIC [1]: > 80 µg/mL

CC1(C)CC(=O)C(=CNc2cccc([N+](=O)[O-])c2)C(=O)C1
MIC [1]: > 80 µg/mL

CC1(C)CC(=O)C(=CNc2ccc([N+](=O)[O-])cc2Cl)C(=O)C1
MIC [1]: > 80 µg/mL

O=C1CCCC(=O)C1=CNc1ccc([N+](=O)[O-])cc1F
MIC [1]: 80 µg/mL (≈ 288 µM)
